Data from patent US8492413B2, “Pharmaceutical combination of 5-fluorouracil and derivate of 1,4-dihydropyridine and its use in the treatment of cancer” (priority 2009, dated 2013).
Where a name gives a salt, the structure may show the parent alone. Read-outs that look alike come from different tables or passages of the source. Blank lines part the entries; values can stand above or below the compound they belong to.

How the values were obtained:
[1] = test system: human breast cancer cells MDA-MB-435s; assay: Cell viability of MDA-MB-435s cells, crystal violet staining assay, 72 h exposure; format: cell-based; conditions: for IC50: 72 h, read-out: IC50 (concentration causing 50% cell viability decrease), compound alone
Protocol: Cell viability was measured using modified crystal violet staining (CVS) assay as described in [[…] et al., 1985]. In brief, cells were fixed with 1% glutaraldehyde for 15 minutes, washed with water and stained with 0.05% crystal violet for 15 minutes at room temperature. After removal of residual crystal violet by washing with tap water the crystal violet stain was eluted with ethanol sodium citrate (1:1) buffer, and absorbance at 540 nm was measured using a microplate reader. The IC50 values, corresponding to concentrations of compounds that cause 50% cell viability decrease, were calculated for individual compounds and their combinations and are summarized in Table 1.

[2] = test system: leukaemia P388, murine sarcoma 37 and Walker's carcinosarcome; conditions: cited from earlier work

IC50 ([1]; Homo sapiens, single agent, MDA-MB-435s): 0.03 mM
SMILES: O=c1[nH]cc(F)c(=O)[nH]1 [Example 5-FU, 5-Fluorouracil]

SMILES: CC1=C(C(=O)OCC(=O)O)C(C)C(C(=O)OCC(=O)O)=C(C)N1 [disodium salt of 2,4,6-trimethyl-1,4-dihydropyridine-3,5-bis-carbonyloxyacetic acid]
IC50 ([1]; Homo sapiens, MDA-MB-435S): > 2.69 mM

SMILES: CCC1C(C(=O)OCC(=O)O)=C(C)NC(C)=C1C(=O)OCC(=O)O [disodium salt of 4-ethyl-2,6-dimethyl-1,4-dihydropyridine-3,5-bis-carbonyloxyacetic acid]
IC50 ([1]; Homo sapiens, MDA-MB-435S): > 2.1 mM

SMILES: CC1=C(C(=O)OCC(=O)[O-])CC(C(=O)OCC(=O)[O-])=C(C)N1.[Na+].[Na+] [Carbatone, Disodium salt of carboxylate-methyl ester of 2,6-dimethyl-1,4-dihydropyridine-3,5-dicarboxylic acid]
Effect on the cytotoxic effect of 5-FU (in words) ([1]; combined treatment with 5-FU, MDA-MB-435s): synergistically potentiates the cytotoxic effect of 5-FU | IC50 ([1]; single agent, MDA-MB-435s): 1.31 mM | Effect on cytostatic activity of cyclophosphane, 5-fluorouracil and arabisosyl cytosine ([2]; against leukaemia P388, murine sarcoma 37 and Walker's carcinosarcome): potentiates the cytostatic activity | Antitumour activity of the compound itself ([2]; alone): exhibited no antitumour activity | Effect on cyclophosphane toxicity ([2]; mice): decreasing the cyclophosphane toxicity
